Experimental data: PMC3874184 (Nucleic Acids Research, 2013)

Assays:
scTrm10_84 = biological target: T1, scTrm10_84 (Saccharomyces cerevisiae, UniProt Q12400); experiment: X-ray crystal structure, […] Å; details: SAM-binding pocket in C-terminal trefoil knot; 1:3 protein:SAH
T1 sequence (Q12400 84-276): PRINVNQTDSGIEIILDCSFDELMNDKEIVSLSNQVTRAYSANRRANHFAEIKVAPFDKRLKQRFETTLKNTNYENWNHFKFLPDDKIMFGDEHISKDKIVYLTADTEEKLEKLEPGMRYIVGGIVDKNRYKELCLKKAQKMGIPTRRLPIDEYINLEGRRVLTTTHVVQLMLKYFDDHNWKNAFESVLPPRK

spTrm10 (spTrm10_FL) [1] = biological target: T2, spTrm10 (spTrm10_FL) (Schizosaccharomyces pombe, UniProt O14214); experiment: X-ray crystal structure, […] Å; details: SAM-binding pocket in C-terminal trefoil knot; 1:3 protein:SAH
T2 sequence (O14214 1-304): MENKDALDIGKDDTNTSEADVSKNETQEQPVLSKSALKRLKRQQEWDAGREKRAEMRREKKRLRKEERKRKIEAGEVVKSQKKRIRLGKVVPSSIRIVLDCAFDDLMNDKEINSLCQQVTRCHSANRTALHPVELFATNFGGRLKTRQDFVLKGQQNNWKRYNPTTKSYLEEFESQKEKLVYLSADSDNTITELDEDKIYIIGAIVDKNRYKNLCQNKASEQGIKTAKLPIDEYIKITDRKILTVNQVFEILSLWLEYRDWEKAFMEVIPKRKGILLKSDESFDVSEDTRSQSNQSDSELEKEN

spTrm10 (spTrm10_FL) [2] = biological target: spTrm10 (spTrm10_FL) (Schizosaccharomyces pombe, UniProt O14214, N209A); experiment: biochemical
Sequence of spTrm10 (spTrm10_FL) (Schizosaccharomyces pombe, UniProt O14214, N209A) (O14214 whole entry N209A): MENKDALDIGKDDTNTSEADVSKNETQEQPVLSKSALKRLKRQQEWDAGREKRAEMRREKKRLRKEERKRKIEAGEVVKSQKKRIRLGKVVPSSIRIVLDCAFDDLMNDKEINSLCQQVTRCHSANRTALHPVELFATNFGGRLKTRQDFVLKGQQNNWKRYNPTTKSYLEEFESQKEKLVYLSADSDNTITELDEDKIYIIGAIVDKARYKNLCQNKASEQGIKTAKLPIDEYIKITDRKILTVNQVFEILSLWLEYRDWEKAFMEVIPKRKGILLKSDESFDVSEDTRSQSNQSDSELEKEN

spTrm10 (spTrm10_FL) [3] = biological target: T2, spTrm10 (spTrm10_FL); experiment: biochemical

X-ray crystal structure, 1.76 Å (scTrm10_84) | X-ray crystal structure, 2.04 Å (spTrm10 (spTrm10_FL) [1]) | Kd (spTrm10 (spTrm10_FL) [2]) | Kd (spTrm10 (spTrm10_FL) [3]) | SMILES
4JWJ for scTrm10_84-SAH | 4JWH for spTrm10-FL-SAH | – | – | Nc1ncnc2c1ncn2[C@@H]1O[C@H](CSCC[C@H](N)C(=O)O)[C@@H](O)[C@H]1O [SAH]
– | – | 83.3 µM | 4.46 µM | C[S+](CC[C@H](N)C(=O)O)C[C@H]1O[C@@H](n2cnc3c(N)ncnc32)[C@H](O)[C@@H]1O (stereo partly shown) [SAM]
